This note sets out measurements from US5114918A, “Endothelin antagonistic cyclic pentapeptides” (Banyu Pharmaceutical Co., Ltd., priority 1989, dated 1992).

Numbered stars: 1 amine (or outer) side, 2 acyl side, 3 side chain; on linkers, the order of the positions; unused ones are H or OH. Square brackets hold non-standard residues; d marks the D form. Peptide text beside a SMILES is read from it. * marks the point of attachment. X2 = CNC(=O)Cn1cc(C[C@@H](N[*:1])C(=O)[*:2])c2ccccc21; X6 = COC(=O)Cn1cc(C[C@@H](N[*:1])C(=O)[*:2])c2ccccc21; X3 = NC(=O)Cn1cc(C[C@@H](N[*:1])C(=O)[*:2])c2ccccc21; X4 = O=C1Nc2ccccc2C1C[C@@H](N[*:1])C(=O)[*:2]; dGly(2-thienyl) = N[C@@H](C(=O)O)c1cccs1; dGly(cPent) = N[C@@H](C(=O)O)C1CCCC1; X7 = O=C([C@H](N[*:1])c1ccco1)[*:2]; d(aIle) = CC[C@H](C)[C@@H](N)C(=O)O; Cya = N[C@@H](CS(=O)(=O)O)C(=O)O; Hyp = O=C(O)[C@@H]1C[C@@H](O)CN1; dCya = N[C@H](CS(=O)(=O)O)C(=O)O; Met(O) = CS(=O)CC[C@H](N)C(=O)O; Gly(N-cPent) = O=C(O)CNC1CCCC1; NMeM = CN[C@@H](CCSC)C(=O)O; N(iPr)Gly = CC(C)NCC(=O)O; Ac6c = NC1(C(=O)O)CCCCC1; NMeA = CN[C@@H](C)C(=O)O; Nle = CCCC[C@H](N)C(=O)O; Nva = CCC[C@H](N)C(=O)O; Sar = CNCC(=O)O; For = O=C*

One may read the inhibition as the drop in the measured response relative to a control, in per cent.

The first assay addresses T1, endothelin receptor (membrane of smooth muscle tissue of porcine aorta) (Sus scrofa, UniProt Q29010).
T1 construct: from tissue; host or cells: smooth muscle tissue of porcine aorta (membrane fraction)
T1 sequence (Q29010 21-427): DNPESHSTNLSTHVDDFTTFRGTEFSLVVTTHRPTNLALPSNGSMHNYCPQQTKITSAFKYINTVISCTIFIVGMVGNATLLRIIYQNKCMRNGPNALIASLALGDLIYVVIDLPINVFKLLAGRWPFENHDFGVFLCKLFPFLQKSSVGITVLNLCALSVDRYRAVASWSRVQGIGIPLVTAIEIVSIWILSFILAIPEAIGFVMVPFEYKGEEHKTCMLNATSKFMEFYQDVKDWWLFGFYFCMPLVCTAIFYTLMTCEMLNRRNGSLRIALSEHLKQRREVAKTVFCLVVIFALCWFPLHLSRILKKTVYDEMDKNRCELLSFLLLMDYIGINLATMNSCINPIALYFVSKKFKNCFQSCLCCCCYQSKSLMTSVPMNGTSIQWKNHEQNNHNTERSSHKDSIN
Kind of assay: Endothelin binding inhibition test (125I-endothelin-1, porcine aorta smooth muscle membrane). The conditions noted are these: 1.1 μM of the test compound; porcine aorta smooth muscle membrane; 25° C, 4 hours. The method, then:
Endothelin binding inhibition test
The smooth muscle tissue of porcine aorta was homogenized in a buffer solution of 10 mM MOPS, pH 7.4, at 4° C. by a polytron. To the homogenate, sucrose was added to a concentration of 20%, and the mixture was centrifuged at 1,000×g for 15 minutes, and the supernatant was further centrifuged at 10,000×g for 15 minutes. The supernatant thereof was further centrifuged at 90,000×g for 40 minutes. The membrane precipitate thereby obtained was suspended in a buffer solution of 5 mM HEPES/Tris, pH 7.4, at a concentration of 25 mg/ml.
Then, 16 μl of this membrane suspension was added to 340 μl of 50 mM Tris/HCl buffer, pH 7.4, containing 10 μM calcium chloride, 10 μM magnesium chloride, 0.1 mM PMSF, 1 μM pepstatin A, 2 μM leupeptin, 1 mM 1,10-phenanthroline and 0.1% bovine serum albumin. To this suspension, 4 μl of (A) endothelin-1 (for nonspecific binding: 0.2 μM as the final concentration), (B) buffer solution A (for total control binding), or (C) a test compound (1.1 μM as the final concentration), was added. Further, to each suspension, 40 μl of ^125 I-endothelin-1 (12000-18000 cpm) was added. These mixtures were incubated at 25° C for 4 hours, then subjected to filtration on a glass filter GF/C and then washed with 5 mM HEPES/Tris, pH 7.4, containing 0.3% bovine serum albumin. Then, the radioactivity trapped by the glass filter was measured, and the ^125 I-endothelin-1 binding inhibition D (%) at 1.1 μM of the test compound was determined by the following equation. [formula] Each test was performed in triplicate.
For cyclo([dW][dE]A[d(aIle)]L) [Example 8], the “125I-endothelin-1 binding inhibition, Inhibition (%)” value amounted to 37%.
On the same count and under the same terms, with “cyclo(-DTrp-DCys(O3 Na)-Glu-DVal-Leu-) [Example 49]” the figure was 67%.
The same measure, in the same setting: with cyclo([dW][dD]P[dV]L) [Example 30] the figure was 72%.

The same assay, now with this note: 1.1 μM of the test compound; porcine aorta smooth muscle membrane; 25° C, 4 hours; read-out: 125I-endothelin-1 binding inhibition, Inhibition (%).
Turning to `COC(=O)Cn1cc(C[C@H]2NC(=O)[C@H](CC(C)C)NC(=O)[C@@H](C(C)C)NC(=O)[C@@H]3CCCN3C(=O)[C@@H](CC(=O)O)NC2=O)c2ccccc21` [Example 90, cyclo(-DTrp(CH2 COOCH3)-DAsp-Pro-DVal-Leu-)] (cyclo(L[X6][dD]P[dV])), the inhibition at 1.1 µM was 35%.
The same measure, in the same setting: with `CC(C)C[C@@H]1NC(=O)[C@@H](c2cccs2)NC(=O)CN(C(C)C)C(=O)[C@@H](CC(=O)O)NC(=O)[C@@H](Cc2c[nH]c3ccccc23)NC1=O` [Example 78, cyclo(-DTrp-DAsp-^i PrGly-DThg-Leu-)] (cyclo(L[dW][dD][N(iPr)Gly][dGly(2-thienyl)])) the figure was 85%.
The same measure, in the same setting: with `CC(C)C[C@@H]1NC(=O)[C@@H](C(C)C)NC(=O)[C@H](C(C)C)NC(=O)[C@@H](CC(=O)O)NC(=O)[C@@H](Cc2c[nH]c3ccccc23)NC1=O` [Example 44, cyclo(-DTrp-DAsp-Val-DVal-Leu-)] (cyclo(L[dW][dD]V[dV])) the figure was 56%; with `CSCC[C@@H]1NC(=O)[C@@H](C(C)C)NC(=O)[C@H](CO)NC(=O)[C@@H](CC(=O)O)NC(=O)[C@@H](Cc2c[nH]c3ccccc23)NC1=O` [Example 37, cyclo(-DTrp-DAsp-Ser-DVal-Met-)] (cyclo(M[dW][dD]S[dV])), 38%; with `CC(C)C[C@@H]1NC(=O)[C@@H](c2cccs2)NC(=O)CN(C)C(=O)[C@@H](CC(=O)O)NC(=O)[C@@H](Cc2c[nH]c3ccccc23)NC1=O` [Example 72, cyclo(-DTrp-DAsp-Sar-DThg-Leu-)] (cyclo(L[dW][dD][Sar][dGly(2-thienyl)])), 79%.
The same measure, in the same setting: with `CCC[C@@H]1NC(=O)[C@@H](C(C)C)NC(=O)[C@@H]2CCCN2C(=O)[C@@H](CC(=O)O)NC(=O)[C@@H](Cc2c[nH]c3ccccc23)NC1=O` [Example 45, cyclo(-DTrp-DAsp-Pro-DVal-Nva-)] (cyclo([Nva][dW][dD]P[dV])) the figure was 85%.
On to `CC(C)C[C@@H]1NC(=O)[C@@H](c2ccco2)NC(=O)[C@@H]2CCCN2C(=O)[C@@H](CC(=O)O)NC(=O)[C@@H](Cc2c[nH]c3ccccc23)NC1=O` [Example 80, cyclo(-DTrp-DAsp-Pro-DFug-Leu-)] (cyclo(L[dW][dD]P[X7])), for which the inhibition at 1.1 µM was 83%.
Same read-out and setting: with `CNC(=O)Cn1cc(C[C@H]2NC(=O)[C@H](CC(C)C)NC(=O)[C@@H](C(C)C)NC(=O)[C@@H]3CCCN3C(=O)[C@@H](CC(=O)O)NC2=O)c2ccccc21` [Example 92, cyclo(-DTrp(CH2 CONHCH3)-DAsp-Pro-DVal-Leu-)] (cyclo(L[X2][dD]P[dV])) the figure was 28%; with `CCCC[C@@H]1NC(=O)[C@@H](C(C)C)NC(=O)[C@@H]2CCCN2C(=O)[C@@H](CC(=O)O)NC(=O)[C@@H](Cc2c[nH]c3ccccc23)NC1=O` [Example 41, cyclo(-DTrp-DAsp-Pro-DVal-Nle-)] (cyclo([Nle][dW][dD]P[dV])), 83%; with `CC(C)C[C@@H]1NC(=O)[C@@H](c2cccs2)NC(=O)[C@@H]2C[C@@H](O)CN2C(=O)[C@@H](CC(=O)O)NC(=O)[C@@H](Cc2c[nH]c3ccccc23)NC1=O` [Example 79, cyclo(-DTrp-DAsp-trans-Hyp-DThg-Leu-)] (cyclo([Hyp][dGly(2-thienyl)]L[dW][dD])), 88%.
As for `CC(C)C[C@@H]1NC(=O)[C@@H](c2cccs2)NC(=O)CN(C2CCCC2)C(=O)[C@@H](CC(=O)O)NC(=O)[C@@H](Cc2c[nH]c3ccccc23)NC1=O` [Example 73, cyclo(-DTrp-DAsp-CpGly-DThg-Leu-)] (cyclo(L[dW][dD][Gly(N-cPent)][dGly(2-thienyl)])), the inhibition at 1.1 µM was 85%.
The same measure, in the same setting: with `CCC[C@@H]1NC(=O)[C@@H](C(C)C)NC(=O)[C@@H]2CCCN2C(=O)[C@@H](CC(=O)O)NC(=O)[C@@H](Cc2cn(C=O)c3ccccc23)NC1=O` [Example 56, cyclo(-DTrp(CHO)-DAsp-Pro-DVal-Nva-)] (cyclo([Nva][dW](For)[dD]P[dV])) the figure was 84%.
On the same count and under the same terms, with `CSCC[C@H]1C(=O)N[C@H](C(C)C)C(=O)N[C@@H](CC(C)C)C(=O)N[C@H](Cc2c[nH]c3ccccc23)C(=O)N[C@H](CC(=O)O)C(=O)N1C` [Example 70, cyclo(-DTrp-DAsp-MeMet-DVal-Leu-)] (cyclo(L[dW][dD][NMeM][dV])) the figure was 85%; with `CC(C)C[C@@H]1NC(=O)[C@@H](C(C)C)NC(=O)[C@@H]2CCCN2C(=O)[C@@H](CC(=O)O)NC(=O)[C@@H](Cc2cn(CC(N)=O)c3ccccc23)NC1=O` [Example 91, cyclo(-DTrp(CH2 CONH2)-DAsp-Pro-DVal-Leu-)] (cyclo(L[X3][dD]P[dV])), 23%.
The same measure, in the same setting: with `CC(C)C[C@@H]1NC(=O)[C@@H](C(C)C)NC(=O)[C@H](C)N(C)C(=O)[C@@H](CC(=O)O)NC(=O)[C@@H](CC2C(=O)Nc3ccccc32)NC1=O` (stereo partly drawn) [Example 89, cyclo(-DTrp(O)-DAsp-MeAla-DVal-Leu-)] (cyclo(L[X4][dD][NMeA][dV])) the figure was 67%; with `CC(C)C[C@@H]1NC(=O)[C@@H](C2CCCC2)NC(=O)[C@@H]2CCCN2C(=O)[C@@H](CC(=O)O)NC(=O)[C@@H](Cc2c[nH]c3ccccc23)NC1=O` [Example 81, cyclo(-DTrp-DAsp-Pro-DCpg-Leu-)] (cyclo(L[dW][dD]P[dGly(cPent)])), 86%; with `CC(C)C[C@@H]1NC(=O)[C@@H](C(C)C)NC(=O)CNC(=O)[C@@H](CC(=O)O)NC(=O)[C@@H](Cc2c[nH]c3ccccc23)NC1=O` [Example 11, cyclo(-DTrp-DAsp-Gly-DVal-Leu-)] (cyclo(G[dV]L[dW][dD])), 74%.
As to `CC(C)C[C@@H]1NC(=O)[C@@H](C(C)C)NC(=O)[C@H](CO)NC(=O)[C@@H](CCC(=O)O)NC(=O)[C@@H](Cc2c[nH]c3ccccc23)NC1=O` [Example 1, cyclo(-DTrp-DGlu-Ser-DVal-Leu-)] (cyclo(L[dW][dE]S[dV])), the inhibition at 1.1 µM came to 19%.
Consider `CC(C)C[C@@H]1NC(=O)C2(CCCCC2)NC(=O)[C@@H]2CCCN2C(=O)[C@@H](CC(=O)O)NC(=O)[C@@H](Cc2c[nH]c3ccccc23)NC1=O` [Example 64, cyclo(-DTrp-DAsp-Pro-Ac6 c-Leu-)] (cyclo([Ac6c]L[dW][dD]P)), for which the inhibition at 1.1 µM turned out to be 83%.
The same measure, in the same setting: with `CC(C)C[C@@H]1NC(=O)[C@@H](C(C)C)NC(=O)[C@H](CC[S+](C)[O-])NC(=O)[C@@H](CC(=O)O)NC(=O)[C@@H](Cc2cn(C=O)c3ccccc23)NC1=O` (stereo partly drawn) [Example 58, cyclo(-DTrp(CHO)-DAsp-Met(O)-DVal-Leu-)] (cyclo(L[dW](For)[dD][Met(O)][dV])) the figure was 84%.

Staying with this assay, now noted: read-out: 125I-endothelin-1 binding inhibition, Inhibition (%).
`CC(C)C[C@@H]1NC(=O)[C@@H](C(C)C)NC(=O)[C@H](CS(=O)(=O)O)NC(=O)[C@@H](CS(=O)(=O)O)NC(=O)[C@@H](Cc2c[nH]c3ccccc23)NC1=O` [Example 42, cyclo(-DTrp-DCys(O3 Na)-Cys(O3 Na)-DVal-Leu-)] (cyclo([Cya][dV]L[dW][dCya])): the inhibition at 1.1 µM turned out to be 79%.
